Laboratory results published in ChEMBL document CHEMBL4627302, “Design, synthesis and anticancer activities of novel dual poly(ADP-ribose) polymerase-1/histone deacetylase-1 inhibitors” (Bioorg Med Chem Lett, 2020).
Active and inactive are the calls of the source. The rule behind the calls is not given here.

What was measured:
K562 = assay: Antiproliferative activity against human K562 cells assessed as cell growth inhibition by MTT assay; assay type: functional
[1] = molecular target: T1, Poly [ADP-ribose] polymerase 1 (Homo sapiens, UniProt P09874); assay: Inhibition of PARP1 (unknown origin) at 20 nM relative to control
MCF7 = assay: Antiproliferative activity against human MCF7 cells assessed as cell growth inhibition by MTT assay; assay type: functional
Histone deacetylase 1 = Histone deacetylase 1 (Homo sapiens, UniProt Q13547); assay: Inhibition of HDAC1 (unknown origin)
MDA-MB-231 = assay: Antiproliferative activity against human MDA-MB-231 cells assessed as cell growth inhibition by MTT assay; assay type: functional
[2] = molecular target: T1, Poly [ADP-ribose] polymerase 1; assay: Inhibition of PARP1 (unknown origin)
[3] = molecular target: T1, Poly [ADP-ribose] polymerase 1; assay: Potency index, ratio of olaparib IC50 to test compound IC50 for inhibition of PARP1 (unknown origin)

Sequence of Histone deacetylase 1 (Q13547 whole entry): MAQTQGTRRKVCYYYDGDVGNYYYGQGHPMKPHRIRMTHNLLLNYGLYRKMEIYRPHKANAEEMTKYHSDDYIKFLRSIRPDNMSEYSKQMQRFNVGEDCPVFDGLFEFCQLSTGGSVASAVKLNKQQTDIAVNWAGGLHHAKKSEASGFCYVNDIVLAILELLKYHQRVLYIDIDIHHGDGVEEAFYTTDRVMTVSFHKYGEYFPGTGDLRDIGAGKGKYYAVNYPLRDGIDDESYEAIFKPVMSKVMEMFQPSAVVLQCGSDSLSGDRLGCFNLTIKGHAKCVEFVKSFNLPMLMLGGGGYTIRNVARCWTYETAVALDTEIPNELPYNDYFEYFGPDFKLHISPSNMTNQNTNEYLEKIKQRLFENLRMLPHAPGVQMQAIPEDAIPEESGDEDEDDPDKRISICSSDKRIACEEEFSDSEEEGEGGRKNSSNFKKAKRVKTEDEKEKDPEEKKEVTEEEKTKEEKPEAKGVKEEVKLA
T1 sequence (P09874 whole entry): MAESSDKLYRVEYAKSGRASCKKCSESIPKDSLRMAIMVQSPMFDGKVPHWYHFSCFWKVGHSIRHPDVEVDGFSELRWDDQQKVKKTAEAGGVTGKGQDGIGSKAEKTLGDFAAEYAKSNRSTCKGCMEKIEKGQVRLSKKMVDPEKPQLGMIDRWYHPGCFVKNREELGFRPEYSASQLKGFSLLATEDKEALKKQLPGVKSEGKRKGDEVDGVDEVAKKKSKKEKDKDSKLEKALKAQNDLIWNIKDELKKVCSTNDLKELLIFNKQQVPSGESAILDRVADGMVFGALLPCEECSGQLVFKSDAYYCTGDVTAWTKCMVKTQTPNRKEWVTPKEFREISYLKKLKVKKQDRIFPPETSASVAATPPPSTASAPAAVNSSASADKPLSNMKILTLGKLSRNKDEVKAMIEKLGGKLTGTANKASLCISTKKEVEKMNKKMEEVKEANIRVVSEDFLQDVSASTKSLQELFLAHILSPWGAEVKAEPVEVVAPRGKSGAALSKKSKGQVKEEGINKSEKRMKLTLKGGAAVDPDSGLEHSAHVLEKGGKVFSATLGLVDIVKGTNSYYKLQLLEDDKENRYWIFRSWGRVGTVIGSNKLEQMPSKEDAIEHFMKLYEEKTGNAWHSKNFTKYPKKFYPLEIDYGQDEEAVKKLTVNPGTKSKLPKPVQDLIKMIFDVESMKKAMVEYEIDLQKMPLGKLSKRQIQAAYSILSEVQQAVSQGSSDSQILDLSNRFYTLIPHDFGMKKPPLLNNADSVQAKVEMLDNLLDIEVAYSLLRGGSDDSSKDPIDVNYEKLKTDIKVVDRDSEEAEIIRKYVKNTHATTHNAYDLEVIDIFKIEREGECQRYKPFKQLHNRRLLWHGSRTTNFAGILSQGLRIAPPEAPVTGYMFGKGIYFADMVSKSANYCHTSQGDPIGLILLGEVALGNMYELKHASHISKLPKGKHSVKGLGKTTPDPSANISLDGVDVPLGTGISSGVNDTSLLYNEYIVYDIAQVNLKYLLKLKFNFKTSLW

Row | SMILES | GI50 (K562) | inhibition [1] [%] | GI50 (MCF7) | IC50 (Histone deacetylase 1; read-out: IC50) [nM] | GI50 (MDA-MB-231) [nM] | IC50 [2] | IC50 ([2]; read-out: IC50) [nM] | IC50 (Histone deacetylase 1) | Ratio IC50 [3]
1 | Nc1cc(F)ccc1NC(=O)[C@H]1CC[C@H](CNC(=O)c2cc(Cc3n[nH]c(=O)c4ccccc34)ccc2F)CC1 | 6610 nM | 49.7 | inactive | 890 | 49200 | – | – | – | –
2 | Nc1ccc(F)cc1NC(=O)c1ccc(CNC(=O)/C=C/c2cccnc2)cc1 | 450 nM | – | 1430 nM | – | 2880 | Not Active | – | – | –
3 | Nc1ccc(F)cc1NC(=O)C1CCN(C(=O)c2cc(Cc3n[nH]c(=O)c4ccccc34)ccc2F)CC1 | inactive | – | inactive | 950 | 1030 | – | 1.81 | – | –
4 | Nc1cc(F)ccc1NC(=O)C1CCN(C(=O)c2cc(Cc3n[nH]c(=O)c4ccccc34)ccc2F)CC1 | inactive | – | inactive | 940 | 4490 | – | 2.58 | – | –
5 | Nc1ccccc1NC(=O)[C@H]1CC[C@H](CNC(=O)c2cc(Cc3n[nH]c(=O)c4ccccc34)ccc2F)CC1 | 2920 nM | 41.3 | 11100 nM | 340 | 50400 | – | – | – | –
6 | Nc1cc(F)ccc1NC(=O)CCCCCNC(=O)c1cc(Cc2n[nH]c(=O)c3ccccc23)ccc1F | 14700 nM | 46.2 | inactive | 810 | 40500 | – | – | – | –
7 | Nc1ccccc1NC(=O)CCCCCNC(=O)c1cc(Cc2n[nH]c(=O)c3ccccc23)ccc1F | 5620 nM | – | inactive | 340 | 4350 | – | 4.23 | – | –
8 | O=C(c1cc(Cc2n[nH]c(=O)c3ccccc23)ccc1F)N1CCN(C(=O)C2CC2)CC1 [OLAPARIB] | inactive | – | 13200 nM | – | 4230 | – | – | Not Active | –
9 | Nc1cc(F)ccc1NC(=O)c1ccc(CNC(=O)c2cc(Cc3n[nH]c(=O)c4ccccc34)ccc2F)cc1 | 2210 nM | 22.1 | 11500 nM | 340 | 78700 | – | – | – | –
10 | Nc1ccc(F)cc1NC(=O)CCCCCNC(=O)c1cc(Cc2n[nH]c(=O)c3ccccc23)ccc1F | 8130 nM | 65.9 | inactive | 520 | 13900 | – | – | – | –
11 | Nc1ccccc1NC(=O)c1ccc(CNC(=O)c2cc(Cc3n[nH]c(=O)c4ccccc34)ccc2F)cc1 | 408 nM | 37.4 | 1910 nM | 140 | 59300 | – | – | – | –
12 | Nc1ccccc1NC(=O)CCCCNC(=O)c1cc(Cc2n[nH]c(=O)c3ccccc23)ccc1F | 62400 nM | 39.4 | inactive | 740 | 61600 | – | – | – | –
13 | Nc1cc(F)ccc1NC(=O)CCCCNC(=O)c1cc(Cc2n[nH]c(=O)c3ccccc23)ccc1F | – | 64.7 | inactive | 1000 | 25400 | – | – | – | –
14 | Nc1ccc(F)cc1NC(=O)CCCCNC(=O)c1cc(Cc2n[nH]c(=O)c3ccccc23)ccc1F | inactive | 42.4 | inactive | 910 | 31300 | – | – | – | –
15 | Nc1ccccc1NC(=O)C1CCN(C(=O)c2cc(Cc3n[nH]c(=O)c4ccccc34)ccc2F)CC1 | inactive | – | inactive | 820 | 2310 | – | 1.94 | – | 2
